Reference: paper PMC8962251 (Biomedicines, 2022)
Bridges are numbered along the chain shown (N, C = ends). Roman numbers before positions name the chains, in order. [ ]: non-standard residue; d: D form. GABA = NCCCC(=O)O

How the values were obtained:
[1] = biological target: SARS-CoV-2 S1S2 spike interaction with hACE2 (Severe acute respiratory syndrome coronavirus 2, UniProt P0DTC2); assay type: binding, SARS-CoV-2; human
SARS-CoV-2 RBD = SARS-CoV-2 RBD (Severe acute respiratory syndrome coronavirus 2, UniProt P0DTC2); assay type: binding
SARS-CoV-2 S1S2 monomer = SARS-CoV-2 S1S2 monomer (Severe acute respiratory syndrome coronavirus 2, UniProt P0DTC2); assay type: binding
SARS-CoV-2 S1S2 trimer = SARS-CoV-2 S1S2 trimer (Severe acute respiratory syndrome coronavirus 2, UniProt P0DTC2); assay type: binding
[2] = tested on: pre-formed complex of SARS-CoV-2 S1S2 monomer and hACE2; assay type: binding, SARS-CoV-2; human

C[C@@H](O)[C@H](NC(=O)[C@H](Cc1c[nH]c2ccccc12)NC(=O)[C@@H](NC(=O)[C@H](CC(=O)O)NC(=O)[C@H](CC(N)=O)NC(=O)[C@H](CCCCN)NC(=O)[C@H](CCCCN)NC(=O)[C@H](CC(=O)O)NC(=O)[C@H](Cc1ccc(O)cc1)NC(=O)[C@H](CCC(=O)O)NC(=O)[C@H](Cc1c[nH]c2ccccc12)NC(=O)[C@H](Cc1c[nH]c2ccccc12)NC(=O)[C@H](Cc1ccccc1)NC(=O)[C@H](CC(=O)O)NC(=O)[C@@H](N)Cc1c[nH]cn1)[C@@H](C)O)C(=O)N[C@@H](CCCNC(=N)N)C(=O)N[C@@H](CCCNC(=N)N)C(=O)N[C@@H](CCCNC(=N)N)C(=O)N[C@@H](CCCNC(=N)N)C(N)=O [CVRBDL-3]
saturation level of the inhibitory effect (% of S1S2 binding level without compound) [1]: ~ 58% | steady-state reduction of S1S2 binding signal to hACE2 [1]: ~ 33%

I: H-HDFWWEYDKKNDTWTR[GABA]R[GABA]RK-NH2 / II: H-HDFWWEYDKKNDTWTR[GABA]R[GABA]R (amide I:21-II:C) [CVRBDL-3_3]
% of theor. Rmax (SARS-CoV-2 RBD): 65% | complex stability increase compared with CVRBDL-3 (factor) (SARS-CoV-2 RBD): ~ 2 | % of theor. Rmax (SARS-CoV-2 S1S2 monomer): 104% | complex stability increase compared with CVRBDL-3 (factor) (SARS-CoV-2 S1S2 monomer): ~ 2.5 | % of theor. Rmax (SARS-CoV-2 S1S2 trimer): 76% | complex stability increase compared with CVRBDL-3 (factor) (SARS-CoV-2 S1S2 trimer): ~ 2.5 | increase of inhibition efficiency compared with CVRBDL-3 (factor) [1]: ~ 11 | maximum displacement compared with CVRBDL-3 (factor) [2]: 1.6 | DC50 ([2]; read-out: DC50 (compound concentration where 50% of the maximum displacement is reached)): 417 nM
